Test results published in patent US10179770B2, “Quinolines derivatives as novel anticancer agents” (GENOSCIENCE PHARMA, priority 2013, dated 2019).

Key:
Type in all cases: cell-based
Colo205 = experiment: EC50 determination in cancer cell lines; conditions: Homo sapiens, COLO 205, 72 h, * n>2
How it was run: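 Treatment lasts 72 h at a fixed vehicle content of DMSO or H2O. The readout is MTS for adherent cells and SRB for suspension cells. Each EC50 is the concentration halving absorbance relative to vehicle.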

OVCAR-4 = experiment: NCI-60 screen (SRB); conditions: OVCAR-4 (Ovarian)
How it was run: (§1)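 RPMI 1640/5% FBS/2 mM Gln; 24 h attach; Tz plates TCA-fixed at dosing; 5 conc. (10-fold or ½-log), 48 h, 37 °C, 5% CO2; SRB, A515; GI50/TGI/LC50 from Tz, C, Ti.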

RPMI-8226 = experiment: NCI-60 screen (SRB); conditions: RPMI-8226 (Leukemia)
How it was run: as §1

HL-60 = experiment: NCI-60 screen (SRB); conditions: HL-60 (Leukemia)
How it was run: as §1

[1] = Homo sapiens, read-out: LC50 (the source's name)

SMILES | EC50 (Colo205) [µM] | GI50 (OVCAR-4; Homo sapiens) [µM] | CC50 (OVCAR-4; [1]) [µM] | TGI (OVCAR-4) [µM] | Growth percent at 10 μM (OVCAR-4; 10 μM) | GI50 (RPMI-8226; Homo sapiens) [nM] | CC50 (RPMI-8226; [1]) [µM] | TGI (RPMI-8226) [µM] | Growth percent at 10 μM (RPMI-8226; 10 μM) | TGI (HL-60) [µM] | Growth percent at 10 μM (HL-60; 10 μM) | GI50 (HL-60; Homo sapiens) [µM] | CC50 (HL-60; [1]) [µM]
Cc1ccc(-c2cc(N3CCC(NC(C)(C)C)CC3)c3ccccc3n2)cc1.Cl.Cl [XIII-8, 2-(4-methyl-phenyl)-4-(4-N-tert-butylamino-piperidin-1-yl)quinoline dihydrochloride] | 8 | – | – | – | – | – | – | – | – | – | – | – | –
CCN(CC)C1CCN(C(C)c2cc(-c3ccccc3)nc3ccccc23)CC1.Cl.Cl (centres unmarked) [XIX-3, 2-phenyl-4-{1-[4-(N,N-diethylamino)piperidin-1-yl]-eth-1-yl}quinoline dihydrochloride] | – | 11 | 52 | 24 | ++ (cell growth 40 > % < 60) | 2000 | 26 | 5 | ++++ (cell growth % < 20) | 33 | ++ (cell growth 40 > % < 60) | 17 | 66
CCN(CC)C1CCN(C(C)c2cc(-c3ccc4ccccc4c3)nc3ccccc23)CC1.Cl.Cl (centres unmarked) [XXIV-3, 2-(2-naphtyl)-4-{1-[4-(N,N-diethylamino)-piperidin-1-yl]-eth-1-yl}quinoline dihydrochloride] | 5 | – | – | – | – | – | – | – | – | – | – | – | –
